The text below walks through data of ChEMBL document CHEMBL1132945, “Ethylene glycol and amino acid derivatives of 5-aminolevulinic acid as new photosensitizing precursors of protoporphyrin IX in cells” (J Med Chem, 2000).

One experiment deals with A549. Put plainly: Cytotoxicity against A549 cells; No cytotoxicity. It is filed as functional, cell-based. The conditions noted are these: Homo sapiens.
The subject of the next experiment is HCEC. Kind of experiment: Cytotoxicity against HCEC cells; No cytotoxicity. The note with it: Homo sapiens. Format: functional, cell-based.

Regarding `CCOCCOCCOC(=O)CCC(=O)CN`, the Cytotoxicity entry with A549 and in the experiment with HCEC was “No cytotoxicity” in each case.

With `CCOCCOC(=O)CCC(=O)CN`, the Cytotoxicity result in the experiment on A549 and in the experiment on HCEC was “No cytotoxicity” each time.

Consider `COCCOC(=O)CCC(=O)CN`, for which the Cytotoxicity entry with A549 and in the experiment with HCEC was “No cytotoxicity” each time.

Consider `CCOCCOCCOCCOC(=O)CCC(=O)CN`, for which the Cytotoxicity result with A549 and with HCEC was “No cytotoxicity” each time.
